Where two headings read alike, the source gives them in different places.
Tests used:
Type in all cases: biochemical
[1] = target: T1, human Yes1 enzyme (Homo sapiens, UniProt P07947); experiment: Yes1 enzyme inhibitory activity (time-resolved fluorometry, biotinylated peptide phosphorylation); conditions: read-out: YES_IC50
T1 construct: made in house
In short: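 Inhibition was expressed against a compound-free control to give IC50, using TR-FRET read-out (Eu-cryptate anti-pTyr antibody, streptavidin-XL665).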

[2] = target: T2, human Src enzyme (Homo sapiens, UniProt P12931); experiment: Src enzyme inhibitory activity (time-resolved fluorometry, biotinylated peptide phosphorylation); conditions: read-out: SRC_IC50
T2 construct: purchased Carna Biosciences, Inc. 08-173
In short: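 Compounds were tested for blocking tyrosine phosphorylation of a biotinylated peptide substrate by recombinant human Src. Phosphorylated product was quantified by time-resolved fluorometry using europium cryptate and XL665 conjugates, and IC50 was calculated against the compound-free control.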

[3] = target: T3, human Lck enzyme (Homo sapiens, UniProt P06239); experiment: Lck enzyme inhibitory activity (time-resolved fluorometry, biotinylated peptide phosphorylation); conditions: read-out: LCK_IC50
T3 construct: purchased Carna Biosciences, Inc. 08-170
In short: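 Readout pairs a europium cryptate-labelled anti-phosphotyrosine antibody with XL665-streptavidin, measured by time-resolved fluorescence. IC50 derived from percent inhibition against untreated controls.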

[4] = biotinylated peptide phosphorylation

T3 sequence (P06239 whole entry): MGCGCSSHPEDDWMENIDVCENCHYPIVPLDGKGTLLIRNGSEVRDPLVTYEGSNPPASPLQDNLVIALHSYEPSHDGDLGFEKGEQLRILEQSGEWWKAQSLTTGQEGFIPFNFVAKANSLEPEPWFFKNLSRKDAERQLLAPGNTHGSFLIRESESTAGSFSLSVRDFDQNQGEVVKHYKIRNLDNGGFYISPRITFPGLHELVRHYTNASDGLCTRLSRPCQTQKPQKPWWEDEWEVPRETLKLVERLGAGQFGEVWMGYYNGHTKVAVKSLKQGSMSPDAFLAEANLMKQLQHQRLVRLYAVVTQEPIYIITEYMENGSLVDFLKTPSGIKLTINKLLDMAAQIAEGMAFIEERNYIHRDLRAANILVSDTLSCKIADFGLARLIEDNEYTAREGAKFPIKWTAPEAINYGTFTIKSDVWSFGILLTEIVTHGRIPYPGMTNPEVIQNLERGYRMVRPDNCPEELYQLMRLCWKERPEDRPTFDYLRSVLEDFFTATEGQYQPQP
T2 sequence (P12931 whole entry): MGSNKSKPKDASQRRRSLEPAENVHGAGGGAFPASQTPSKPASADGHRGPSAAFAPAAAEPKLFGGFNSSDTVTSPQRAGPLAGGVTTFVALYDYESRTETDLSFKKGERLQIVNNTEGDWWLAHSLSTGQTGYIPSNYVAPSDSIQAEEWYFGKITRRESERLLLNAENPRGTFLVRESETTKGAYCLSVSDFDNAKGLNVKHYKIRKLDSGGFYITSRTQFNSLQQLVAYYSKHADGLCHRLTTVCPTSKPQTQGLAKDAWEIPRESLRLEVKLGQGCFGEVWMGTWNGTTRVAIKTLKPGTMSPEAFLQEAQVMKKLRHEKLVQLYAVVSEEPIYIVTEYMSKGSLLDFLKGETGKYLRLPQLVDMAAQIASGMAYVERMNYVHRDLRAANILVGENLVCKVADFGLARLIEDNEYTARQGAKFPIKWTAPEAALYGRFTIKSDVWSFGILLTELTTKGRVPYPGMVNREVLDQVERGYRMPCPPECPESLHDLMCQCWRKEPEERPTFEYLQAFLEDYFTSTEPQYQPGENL
T1 sequence (P07947 whole entry): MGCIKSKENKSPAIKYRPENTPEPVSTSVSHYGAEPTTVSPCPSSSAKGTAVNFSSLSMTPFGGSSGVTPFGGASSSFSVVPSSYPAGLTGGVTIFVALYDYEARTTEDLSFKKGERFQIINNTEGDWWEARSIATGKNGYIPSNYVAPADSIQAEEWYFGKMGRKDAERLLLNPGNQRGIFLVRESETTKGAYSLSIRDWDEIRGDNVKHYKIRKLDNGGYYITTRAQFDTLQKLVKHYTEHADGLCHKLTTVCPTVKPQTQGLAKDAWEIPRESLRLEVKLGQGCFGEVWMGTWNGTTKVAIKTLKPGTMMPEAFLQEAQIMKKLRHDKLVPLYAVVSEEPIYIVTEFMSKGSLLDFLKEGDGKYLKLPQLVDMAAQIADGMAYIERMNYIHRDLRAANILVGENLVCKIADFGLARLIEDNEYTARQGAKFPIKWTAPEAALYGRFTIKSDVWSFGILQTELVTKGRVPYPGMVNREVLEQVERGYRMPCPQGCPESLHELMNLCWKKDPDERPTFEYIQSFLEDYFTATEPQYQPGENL

| SMILES | IC50 [1, 4] [nM] | IC50 [2, 4] [nM] | IC50 [3, 4] [nM] | IC50 [1] [nM] | IC50 [2] [nM] | IC50 [3] [nM] |
| --- | --- | --- | --- | --- | --- | --- |
| Cc1cc(Oc2ccccc2F)ncc1-n1ncc(C(=O)c2cc3cc(OCC(F)F)c(C4CCN(S(C)(=O)=O)CC4)cc3[nH]2)c1N [Example 4-17-021, [5-amino-1-[6-(2-fluorophenoxy)-4-methylpyridin-3-yl]pyrazol-4-yl]-[5-(2,2-difluoroethoxy)-6-(1-methylsulfonylpiperidin-4-yl)-1H-indol-2-yl]methanone] | 0.76 | 9.7 | 5.6 |  |  |  |
| Cc1cc(Oc2ccccc2F)cc(F)c1-n1ncc(C(=O)c2cc3cc(NS(C)(=O)=O)c(Cl)cc3[nH]2)c1N [Example 4-2-093, N-[2-[5-amino-1-[2-fluoro-4-(2-fluorophenoxy)-6-methylphenyl]pyrazole-4-carbonyl]-6-chloro-1H-indol-5-yl]methanesulfonamide] | 0.89 | 19 | 5.7 |  |  |  |
| COc1cc2cc(C(=O)c3cnn(-c4cnc(Oc5c(F)cccc5F)cc4C)c3N)[nH]c2cc1NS(=O)(=O)CC(=O)N1CCCC1 [Example 4-10-017, N-[2-[5-amino-1-[6-(2,6-difluorophenoxy)-4-methylpyridin-3-yl]pyrazole-4-carbonyl]-5-methoxy-1H-indol-6-yl]-2-oxo-2-pyrrolidin-1-ylethanesulfonamide] | 0.93 | 32 | 11 |  |  |  |
| Cc1cc(Oc2ccccc2F)cc(F)c1-n1ncc(C(=O)c2cc3cc(OC(F)F)c(C4CCN(S(=O)(=O)C5CC5)CC4)cc3[nH]2)c1N [Example 4-17-007, [5-amino-1-[2-fluoro-4-(2-fluorophenoxy)-6-methylphenyl]pyrazol-4-yl]-[6-(1-cyclopropylsulfonylpiperidin-4-yl)-5-(difluoromethoxy)-1H-indol-2-yl]methanone] | 3.9 | 22 | 12 |  |  |  |
| Cc1cc(Oc2ccccc2F)ccc1-n1ncc(C(=O)c2cc3cc(F)c(N4CC(C)(C)NS4(=O)=O)cc3[nH]2)c1N [Example 5-1-302, (5-amino-1-(4-(2-fluorophenoxy)-2-methylphenyl)-1H-pyrazol-4-yl)(6-(4,4-dimethyl-1,1-dioxido-1,2,5-thiadiazolidin-2-yl)-5-fluoro-1H-indol-2-yl)methanone] |  |  |  | 1.9 | 50 | 22 |
| Cc1cc2cc(C(=O)c3cnn(-c4cnc(Oc5c(F)cccc5F)cc4C)c3N)[nH]c2cc1NS(=O)(=O)C1CCOCC1 [Example 5-1-269, N-[2-[5-amino-1-[6-(2,6-difluorophenoxy)-4-methylpyridin-3-yl]pyrazole-4-carbonyl]-5-methyl-1H-indol-6-yl]oxane-4-sulfonamide] |  |  |  | 2 | 110 | 23 |
| Cc1cc(Oc2ccccc2F)ncc1-n1ncc(C(=O)c2cc3cc(F)c(NS(=O)(=O)CC(=O)N4CCOCC4)cc3[nH]2)c1N [Example 4-10-006, N-[2-[5-amino-1-[6-(2-fluorophenoxy)-4-methylpyridin-3-yl]pyrazole-4-carbonyl]-5-fluoro-1H-indol-6-yl]-2-morpholin-4-yl-2-oxoethanesulfonamide] | 1 | 37 | 19 |  |  |  |
| Cc1cc(-n2ncc(C(=O)c3cc4cc(OC5CCN(C(C)C)CC5)c(N5CCOC5=O)cc4[nH]3)c2N)ccc1Oc1ccccc1F [Example 5-1-178, 3-(2-(5-amino-1-(4-(2-fluorophenoxy)-3-methylphenyl)-1H-pyrazole-4-carbonyl)-5-((1-isopropylpiperidin-4-yl)oxy)-1H-indol-6-yl)oxazolidin-2-one] |  |  |  | 0.37 | 48 | 3.4 |
| Cc1cc(Oc2ccccc2F)cc(F)c1-n1ncc(C(=O)c2cc3cc(OC4CCN(C(C)C)CC4)c(Br)cc3[nH]2)c1N [Example 5-1-154, [5-amino-1-[2-fluoro-4-(2-fluorophenoxy)-6-methylphenyl]pyrazol-4-yl]-[6-bromo-5-(1-propan-2-ylpipendin-4-yl)oxy-1H-indol-2-yl] methanone] |  |  |  | 0.67 | 11 | 4.3 |
| Cc1cc(Oc2ccccc2F)ccc1-n1ncc(C(=O)c2cc3cc(F)c(NS(=O)(=O)NCCO)cc3[nH]2)c1N [Example 4-6-002, [5-amino-1-[4-(2-fluorophenoxy)-2-methylphenyl]pyrazol-4-yl]-[5-fluoro-6-(2-hydroxyethylsulfamoylamino)-1H-indol-2-yl]methanone] | 0.35 | 16 | 4.6 |  |  |  |
| Nc1c(C(=O)c2cc3cc(F)c(NS(=O)(=O)CCCF)cc3[nH]2)cnn1-c1ccc(Oc2ncccc2Cl)cc1Cl [Example 5-1-037, N-[2-[5-amino-1-[2-chloro-4-(3-chloropyridin-2-yl)oxyphenyl]pyrazole-4-carbonyl]-5-fluoro-1H-indol-6-yl]-3-fluoropropane-1-sulfonamide] |  |  |  | 0.91 | 45 | 17 |

Now from value to compound:

| IC50 [1, 4] [nM] | IC50 [2, 4] [nM] | IC50 [3, 4] [nM] | IC50 [1] [nM] | IC50 [2] [nM] | IC50 [3] [nM] | SMILES |
| --- | --- | --- | --- | --- | --- | --- |
| 1.2 | 43 | 6.1 |  |  |  | Cc1cc2cc(C(=O)c3cnn(-c4ccc(Oc5ccccc5F)cc4C)c3N)[nH]c2cc1N1C(=O)NC2(CCOCC2)C1=O [Example 5-1-408, 3-[2-[5-amino-1-[4-(2-fluorophenoxy)-2-methylphenyl]pyrazole-4-carbonyl]-5-methyl-1H-indol-6-yl]-8-oxa-1,3-diazaspiro[4.5] decane-2,4-dione] |
|  |  |  | 5.6 | 99 | 52 | Cc1cc2cc(C(=O)c3cnn(-c4c(C)cc(Oc5c(F)cccc5Cl)cc4F)c3N)[nH]c2cc1NS(C)(=O)=O [Example 5-1-142, N-[2-[5-amino-1-[4-(2-chloro-6-fluorophenoxy)-2-fluoro-6-methylphenyl]pyrazole-4-carbonyl]-5-methyl-1H-indol-6-yl] methanesulfonamide] |
|  |  |  | 1.6 | 16 | 7.1 | COC(=O)[C@H](Cc1cnc[nH]1)NC(=O)Nc1cc2[nH]c(C(=O)c3cnn(-c4ccc(Oc5ccccc5F)cc4C)c3N)cc2cc1OCC(F)F [Example 5-1-246, Methyl (2S)-2-[[2-[5-amino-1-[4-(2-fluorophenoxy)-2-methylphenyl]pyrazole-4-carbonyl]-5-(2,2-difluoroethoxy)-1H-indol-6-yl]carbamoylamino]-3-(1H-imidazol-5-yl) propanoate] |
|  |  |  | 1.6 | 110 | 6.4 | Cc1cc(Oc2cccc(Cl)c2)cc(F)c1-n1ncc(C(=O)c2cc3cc(NS(C)(=O)=O)c(F)cc3[nH]2)c1N [Example 5-1-048, N-[2-[5-amino-1-[4-(3-chlorophenoxy)-2-fluoro-6-methylphenyl]pyrazole-4-carbonyl]-6-fluoro-1H-indol-5-yl]methanesulfonamide] |
| 1.5 | 54 | 6.7 |  |  |  | Cc1cc(Oc2c(F)cccc2F)ncc1-n1ncc(C(=O)c2cc3cc(OC(F)F)c(N4C(=O)NC(C)(C)C4=O)cc3[nH]2)c1N [Example 4-23-034, 3-[2-[5-amino-1-[6-(2,6-difluorophenoxy)-4-methylpyridin-3-yl]pyrazole-4-carbonyl]-5-(difluoromethoxy)-1H-indol-6-yl]-5,5-dimethylimidazolidine-2,4-dione] |
|  |  |  | 8.3 | 150 | 27 | Cc1cc(Oc2c(F)cccc2F)ncc1-n1ncc(C(=O)c2cc3cc(F)c(N4C(=O)NC(C)(C(F)(F)F)C4=O)cc3[nH]2)c1N (stereo not drawn) [Example 5-1-370, 3-[2-[5-amino-1-[6-(2,6-difluorophenoxy)-4-methylpyridin-3-yl]pyrazole-4-carbonyl]-5-fluoro-1H-indol-6-yl]-5-methyl-5-(trifluoromethyl)imidazolidine-2,4-dione] |
|  |  |  | 150 | 1000 | 350 | Cc1cc(Oc2cc(F)cc(F)c2)nc(C)c1-n1ncc(C(=O)c2cc3cc(F)c(NS(C)(=O)=O)cc3[nH]2)c1N [Example 5-1-054, N-[2-[5-amino-1-[6-(3,5-difluorophenoxy)-2,4-dimethylpyridin-3-yl]pyrazole-4-carbonyl]-5-fluoro-1H-indol-6-yl]methanesulfonamide] |
| 4 | 230 | 61 |  |  |  | Cc1cc(Oc2ccccc2F)ncc1-n1ncc(C(=O)c2cc3cc(OC(F)F)c(NS(=O)(=O)C4CC4)cc3[nH]2)c1N [Example 4-24-007, N-[2-[5-amino-1-[6-(2-fluorophenoxy)-4-methylpyridin-3-yl]pyrazole-4-carbonyl]-5-(difluoromethoxy)-1H-indol-6-yl]cyclopropanesulfonamide] |
| 0.56 | 22 | 2.9 |  |  |  | Cc1cc2cc(C(=O)c3cnn(-c4ccc(Oc5ccccc5F)cc4C)c3N)[nH]c2cc1N1C(=O)NC2(COC2)C1=O [Example 5-1-410, 7-[2-[5-amino-1-[4-(2-fluorophenoxy)-2-methylphenyl]pyrazole-4-carbonyl]-5-methyl-1H-indol-6-yl]-2-oxa-5,7-diazaspiro[3.4] octane-6,8-dione] |
| 4.1 | 25 | 6.6 |  |  |  | Cc1cc(Oc2c(F)cccc2F)ncc1-n1ncc(C(=O)c2cc3cc(OC(F)F)c(N4CCCC4=O)cc3[nH]2)c1N [Example 4-21-008, 1-[2-[5-amino-1-[6-(2,6-difluorophenoxy)-4-methylpyridin-3-yl]pyrazole-4-carbonyl]-5-(difluoromethoxy)-1H-indol-6-yl]pyrrolidin-2-one] |
| 1.2 | 120 | 33 |  |  |  | Cc1cc(Oc2ccccc2F)ncc1-n1ncc(C(=O)c2cc3cc(F)c(NS(=O)(=O)N4CCOCC4)cc3[nH]2)c1N [Example 4-5-001, N-{2-{5-amino-1-[6-(2-fluorophenoxy)-4-methylpyridin-3-yl]pyrazole-4-carbonyl}-5-fluoro-1H-indol-6-yl}morpholine-4-sulfonamide] |
